Data reported in patent US11938121B2, “Treatment of infections and biofilm formation using a cellulose synthase inhibitor” (Purdue Research Foundation, priority 2020, dated 2024).

Target: T1, GFP-CESA6c: GFP-tagged central cytosolic domain of AtCESA6 (cellulose synthase, CESA6) with a His-SUMO tag (Arabidopsis thaliana, UniProt Q94JQ6)
T1 construct: His-SUMO; made in house; host or cells: E. coli
T1 sequence (Q94JQ6 322-868 limits assumed): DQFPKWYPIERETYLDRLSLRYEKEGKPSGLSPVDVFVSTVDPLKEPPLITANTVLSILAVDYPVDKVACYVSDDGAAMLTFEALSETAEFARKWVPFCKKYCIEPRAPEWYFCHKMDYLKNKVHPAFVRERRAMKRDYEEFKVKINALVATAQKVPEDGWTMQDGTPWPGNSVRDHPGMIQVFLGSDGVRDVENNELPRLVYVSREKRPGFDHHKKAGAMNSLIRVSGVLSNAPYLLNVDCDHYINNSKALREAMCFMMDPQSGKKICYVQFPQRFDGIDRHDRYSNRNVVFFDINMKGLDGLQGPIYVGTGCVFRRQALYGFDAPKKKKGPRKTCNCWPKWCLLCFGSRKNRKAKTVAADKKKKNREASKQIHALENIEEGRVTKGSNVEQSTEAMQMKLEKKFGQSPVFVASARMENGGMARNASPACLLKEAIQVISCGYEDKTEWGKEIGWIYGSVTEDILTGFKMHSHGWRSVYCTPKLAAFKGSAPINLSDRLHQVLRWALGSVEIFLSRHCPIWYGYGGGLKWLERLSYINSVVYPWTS
Test: Microscale thermophoresis (MST) binding to purified GFP-tagged CESA6c (wild-type)
Conditions: FIGS. 3K-3M, 100 nM GFP-CESA6c purified from E. coli, pH 7.5, 10 mM MgCl2, 0.05% Tween 20, 5% DMSO, triplicate, read-out: Kd, thermophoresis binding curve, GFP-CESA6c
Description: FIGS. 3A-3Q. […] FIG. 3A to FIG. 3G. […] FIG. 3A. Representative 5-day-old dark-grown Arabidopsis Col-0 seedlings grown on growth medium supplemented with different concentrations of ES20 or ES20-1. Scale bar: 1 cm. FIG. 3B. Quantification of hypocotyl length of 5-day-old dark-grown Arabidopsis Col-0 seedlings described in FIG. 3A. Data represent mean±SD (n=12 seedlings). FIG. 3C. Quantification of crystalline cellulose content in the hypocotyl cell walls of 7-day-old dark-grown Col-0 seedlings grown on growth medium supplemented with DMSO (0.1%), 1 μM ES20, or 1 μM ES20-1. Data represent mean±SD (n=3 biological replicates). FIG. 3D and FIG. 3E. […] FIG. 3D. Representative image of 6-day-old rice seedlings grown in sterile water supplemented with DMSO (0.1%), 20 μM ES20, or 20 μM ES20-1. Scale bar: 1 cm. FIG. 3E. Quantification of root length of rice seedlings as described in FIG. 3D. Data represent mean±SD (n=10 seedlings). FIG. 3F and FIG. 3G. […] FIG. 3F. Representative image of 6-day-old maize seedlings grown in sterile water supplemented with DMSO (0.1%), 20 μM ES20, or 20 μM ES20-1. Scale bar: 1 cm. FIG. 3G. Quantification of root length of maize seedlings as described in FIG. 3F. Data represent mean±SD (n=12 seedlings). […] FIG. 3H. Representative immunoblot from a DARTS assay of ES20-1 and YFP-AtCESA6. FIG. 3I. Quantitative analysis of the band intensity of YFP-AtCESA6 and SEC12 in ES20-1-treated samples divided by that of DMSO-treated samples in the DARTS assay described in FIG. 3H. Data represent mean±SD (n=6 biological replicates). FIGS. 3J-3N. […] FIG. 3J. Coomassie blue staining of purified GFP-tagged CESA6c with a His-SUMO tag (lane 2). FIGS. 3K, 3L, 3M, 3N. […] FIG. 3O. Coomassie blue staining of purified GFP-tagged CESA6c^P595S with a His-SUMO tag (lane 2). FIG. 3P and FIG. 3Q. […] Statistically significant differences in FIG. 3B were determined using one-way ANOVA followed by Tukey's multiple comparisons test. Lower-case letters represent ANOVA results for plants grown on medium with 0.1% DMSO, different concentrations of ES20 or ES20-1. […]

For `Cc1ccccc1C(=O)NNC(=S)NC(=O)c1ccccc1` [ES20-1], which Kd is on record?
Its Kd is 4.4 ± 2.5 µM.
